# Reference: patent US20260083743A1, “NUCLEOSIDE DERIVATIVE FOR PREVENTING AND TREATING INFLAMMATION AND APPLICATION THEREOF” (WEST CHINA HOSPITAL OF SICHUAN UNIVERSITY, priority 2019, published 2026)
# Tests used:
# [1] = tested on: arthritis model; assay: Improvement effect on arthritis, sodium iodoacetate knee joint model in SD rats; format: in vivo; set-up: Pathological tissue score (joint): scale not given here; conditions: gavage every day 100 mg/kg/d; 4th week after operation; n = 10
# Protocol: In this example, the improvement effect of compounds 1˜19 prepared in example 1 on arthritic was measured. (1) Animals: SD rats, four rates in one cage, were fed under the conditions of constant temperature (25±2° C.) and illumination control (12 h day/night circulation). The animals were fed with standard feed, and fed for at least 7 days to adapt environment before the experiment. […] (3) SD rats were fasted for 12 hours before operation, and weighed and recorded prior to operation. The blank control group was not treated any more. […] After anesthesia, they were fixed in the supine position. 0.1 ml of 1 g/L sodium iodoacetate solution was injected into the knee joint. From the fifth day, the animals were driven to run for 30 minutes every day, and they were allowed to move freely in the cage the rest of the time. After modeling, indomethacin and compounds 1˜19 were given by gavage every day at the dose of 100 mg/kg/d. The blank control group and the model control group were given equal volume of isotonic saline. At the 4th week after operation, the articular fluid of rats in each group was extracted to measure the content of MMP-13. The rats were killed, and the subchondral bone plate of the inner condyle of the tibia of the right knee was cut and processed into specimens, and pathological scores were made.
# [2] = tested on: mouse hepatitis model; assay: Improvement effect on hepatitis, concanavalin A (ConA) mouse hepatitis model; format: in vivo, Blab/c mice; conditions: gavage 50 mg/kg, n = 10
# Protocol: In this example, the improvement effect of compounds 1 19 prepared in example 1 on […] measured. (1) Animals: Adult and Healthy Male Blab/c Mice, 25 30 g. […] The blank control group was injected with equal volume of isotonic saline. After modeling, indomethacin and compounds 1 19 were given by gavage every day at the dose of 50 mg/kg. The blank control group and the model control group were given equal volume of isotonic saline. Eyeball blood and liver tissue were taken at 6 h, 12 h, 24 h and 48 h after administration. The levels of serum alanine aminotransferase (ALT) and aspartate aminotransferase (AST) were measured.
# [3] = tested on: C57 mice; assay: Toxicity test, 180 consecutive days by gavage in C57 mice; format: in vivo; conditions: 100 mg/kg/D for 180 consecutive days by gavage
# Protocol: In this example, the toxicities of compounds 1-19 prepared in example 1 were analyzed.
# C57 mice were given compounds 1-19 at a dose of 100 mg/kg/D for 180 consecutive days by gavage. One hour after the last administration of the drug, the mice were anesthetized by intraperitoneal injection of sodium pentobarbital (40 mg/kg), placed on a constant temperature hot plate at 37±1° C., blood was taken by cardiac puncture or pathological sections were made to detect the side effects (gastrointestinal reaction, nervous system toxicity, hematological toxicity, allergic reaction, nephrotoxicity, hepatotoxicity, rash and asthma) The side effects of aspirin, ibuprofen, indomethacin, phenylbutazone, diclofenac, piroxicam and glucocorticoid groups were investigated according to the same administration method as compounds 1-19.
smiles,measurement,setting,value
"COc1ccc2c(c1)c(CC(=O)O)c(C)n2C(=O)c1ccc(Cl)cc1 [Indometacin, indometacin, reference compound]",MMP-13 content in joint fluid,[1],195 ± 8 mg/L
same,Pathological tissue score (joint),[1],2.1 ± 0.3
same,Aspartate aminotransferase (AST),[2]; 6 h after administration,220 ± 19 U/L
same,Serum alanine aminotransferase (ALT),[2]; 6 h after administration,465 ± 43 U/L
same,Aspartate aminotransferase (AST),[2]; 12 h after administration,780 ± 82 U/L
same,Serum alanine aminotransferase (ALT),[2]; 12 h after administration,1232 ± 113 U/L
same,Aspartate aminotransferase (AST),[2]; 24 h after administration,1021 ± 103 U/L
same,Serum alanine aminotransferase (ALT),[2]; 24 h after administration,2165 ± 203 U/L
same,Aspartate aminotransferase (AST),[2]; 48 h after administration,870 ± 91 U/L
same,Serum alanine aminotransferase (ALT),[2]; 48 h after administration,1287 ± 133 U/L
same,Occurrence rate of side effects,[3],20%
